What was measured:
Assay type in all cases: physicochemical
[1] = Temperature and humidity stress test, 40° C./75% RH, XRPD; conditions: for Change of solid form under stress, in words: 40° C. and 75% RH, XRPD at 30, 60 and 96 days; for Solid form after stress test / Time at which conversion to Form I was detected: 40° C./75% RH; for Solid form after stress test: XRPD
Description: XRPD was measured at 30, 60, and 96 days (FIG. 15).

Manual grinding, XRPD = conditions: mortar and pestle, five cycles of 2 minutes (10 minutes total)
[2] = Compression at 700 lbs, XRPD; conditions: XRPD before and after, listed as ritonavir Form III
[3] = Short-term thermal stability, Raman microscopy; conditions: sequentially 15 minutes at 50° C., 70° C. and 90° C., Raman after each
Description: Short-term thermal stability experiments were conducted by holding the material from example 1f sequentially for 15 minutes at 50° C., 15 minutes at 70° C., and 15 minutes at 90° C. The sample was analyzed by Raman microscopy after each temperature exposure. […] FIG. 10 compares the short-term thermal stability results to the reference spectra from FIG. 9.

[4] = Longer-term stability at ambient conditions, Raman; conditions: 5 weeks and up to 23 weeks
Description: Additionally, a longer-term stability study was performed.

[5] = Dynamic vapor sorption (DVS); conditions: 5% to 95% RH
Text: No hysteresis was observed. DVS isotherms were characterized using a VTI SGA-100 Vapor Sorption Analyzer. The sample was not dried prior to analysis. Sorption and desorption isotherms were collected over a range from 5% to 95% RH at 10% RH increments under a dry air purge. The equilibrium criterion used for analysis was less than 0.0100%^0/weight change in five minutes with a maximum equilibration time of three hours and a 2-minute data logging interval. Data were not corrected for the initial moisture content of the sample.

Row | SMILES | Change of solid form under stress, in words [1] | Solid form after stress test ([1]; 30 days) | Solid form after stress test ([1]; 60 days) | Solid form after stress test ([1]; 96 days) | Time at which conversion to Form I was detected ([1]; listed as amorphous ritonavir) | Solid form after manual grinding (Manual grinding, XRPD; listed as Amorphous material) | Solid form after manual grinding (Manual grinding, XRPD) | Solid form after stress test ([1]; 96 days, listed as ritonavir Form III) | Time at which conversion to Form I was detected ([1]; listed as Form III ritonavir) | Time at which conversion to Form I was detected ([1]; listed as ritonavir Form III) | Solid form after manual grinding (Manual grinding, XRPD; listed as ritonavir Form III) | Change of solid form after compression [2] | Solid form after short-term thermal exposure [3] | Solid form after storage at ambient conditions [4] | Hygroscopicity [5]
1 | CC(C)c1nc(CN(C)C(=O)N[C@H](C(=O)N[C@@H](Cc2ccccc2)C[C@H](O)[C@H](Cc2ccccc2)NC(=O)OCc2cncs2)C(C)C)cs1 (single isomer, unassigned) [Amorphous, 10-hydroxy-2-methyl-5-(1-methylethyl)-1-[2-(1-methylethyl)-4-thiazolyl]-3,6-dioxo-8,11-bis(phenylmethyl)-2,4,7,12-tetraazatridecan-13-oic acid, 5-thiazolylmethyl ester, [SS-(5R*,8R*,10R*,1R*)]] | No change | Form I | Form I | Form I | ≤ 30 days | remained unchanged |  |  |  |  |  |  |  |  | 
2 | CC(C)c1nc(CN(C)C(=O)N[C@H](C(=O)N[C@@H](Cc2ccccc2)C[C@H](O)[C@H](Cc2ccccc2)NC(=O)OCc2cncs2)C(C)C)cs1 (single isomer, unassigned) [Form I, 10-hydroxy-2-methyl-5-(1-methylethyl)-1-[2-(1-methylethyl)-4-thiazolyl]-3,6-dioxo-8,11-bis(phenylmethyl)-2,4,7,12-tetraazatridecan-13-oic acid, 5-thiazolylmethyl ester, [SS-(5R*,8R*,10R*,1R*)]] | No change | Form I | Form I | Form I |  |  | Mixture of amorphous and Form I |  |  |  |  |  |  |  | 
3 | CC(C)c1nc(CN(C)C(=O)N[C@H](C(=O)N[C@@H](Cc2ccccc2)C[C@H](O)[C@H](Cc2ccccc2)NC(=O)OCc2cncs2)C(C)C)cs1 (single isomer, unassigned) [Form II, 10-hydroxy-2-methyl-5-(1-methylethyl)-1-[2-(1-methylethyl)-4-thiazolyl]-3,6-dioxo-8,11-bis(phenylmethyl)-2,4,7,12-tetraazatridecan-13-oic acid, 5-thiazolylmethyl ester, [SS-(5R*,8R*,10R*,1R*)]] |  |  |  |  |  |  | mixture of amorphous and Form II |  |  |  |  |  |  |  | 
4 | CC(C)c1nc(CN(C)C(=O)N[C@H](C(=O)N[C@@H](Cc2ccccc2)C[C@H](O)[C@H](Cc2ccccc2)NC(=O)OCc2cncs2)C(C)C)cs1 (single isomer, unassigned) [Form III, 10-hydroxy-2-methyl-5-(1-methylethyl)-1-[2-(1-methylethyl)-4-thiazolyl]-3,6-dioxo-8,11-bis(phenylmethyl)-2,4,7,12-tetraazatridecan-13-oic acid, 5-thiazolylmethyl ester, [SS-(5R*,8R*,10R*,1R*)]] |  | Form III | Form III + Form I | Form III + Form I |  |  |  | presence of Form I peaks | 60 days | 60 days | amorphous with traces of Form III | no change | remained as Form III ritonavir | remained unchanged | not hygroscopic

Source: patent publication US12318370B2, “Processes for preparing solid state forms” (Varda Space Industries, Inc., priority 2022, dated 2025)
